In publication PMC12691742, “Anti-Cancer Outcome of Glucocorticoid Receptor Transrepression by Synephrine Derivatives in Hematological Malignancies” (International Journal of Molecular Sciences, 2025):

Columns and labels:
[1] = tested on: GR phosphorylated by Ser211 in K562 and Granta cells; assay: Western blot of nuclear phospho-GR (Ser211); assay type: cell-based; settings: 10 h; Dex 10 µM, 4S-C2 50 µM, 8S-E3 50 µM, 10S-E2 15 µM, 13S-G2 25 µM
Description: (§1) Figure 3 Effects of synephrine derivatives on GR transactivation in Granta lymphoma and K562 leukemia cells. (A) Q-PCR analysis of FKBP51, GILZ, and DDIT4 mRNA expression in K562 and Granta cells. […] The Q-PCR results were normalized to the expression of the housekeeping gene RPL27 and are presented as fold changes compared to the control. The mean ± SD was calculated for three individual samples/condition (n = 3). Statistically significant differences compared to the control: * p < 0.05, ** p < 0.01. (B) The levels of the nuclear fraction of phospho-GR (Ser211) were determined using Western blot analysis (n = 3; characteristic images are presented in the figure). Histone H3 was used as a loading control.
Western blot analysis was performed as previously described. Proteins were resolved using SDS-PAGE. Membranes were blocked with 5% nonfat milk solution and then incubated with primary antibodies against phosphorylated GR (pGR, Ser211) (“Santa Cruz Biotechnology”, Santa Cruz, CA, USA) overnight at 4 °C. To verify equal protein loading and adequate transfer, the membranes were probed with Histone H3 antibodies (“Cell Signaling”, Boston, MA, USA). Goat anti-rabbit IgGs (“Jackson Immuno Research”, West Grove, PA, USA) were used as secondary antibodies. Signals were detected using ECL reagent and an ImageQuant LAS4000 system (“GE HealthCare”, Chicago, IL, USA). ImageJ 1.54h software was used for densitometry. The experiments were performed in triplicate.
7 K562, pGR nuclear 5 Granta, pGR nuclear
Supplementary Figure S 22. Quantification of Western blot analysis. K562 and Granta cells […]
μM) and 13S-G2 (25 μ M) for 10 h. Quantification of Western blot anal ysis of p- GR protein levels was done usin g Im a ge J f ree so ftwar e. Statisticall y significant diff eren ces as compared to control: […]

GR = biological target: T1, GR (Homo sapiens, UniProt P04150); assay: GR radioligand binding assay, competition with [3H]Dex in K562 cells
T1 construct: endogenous in cells; host or cells: K562
T1 sequence (P04150 1-777): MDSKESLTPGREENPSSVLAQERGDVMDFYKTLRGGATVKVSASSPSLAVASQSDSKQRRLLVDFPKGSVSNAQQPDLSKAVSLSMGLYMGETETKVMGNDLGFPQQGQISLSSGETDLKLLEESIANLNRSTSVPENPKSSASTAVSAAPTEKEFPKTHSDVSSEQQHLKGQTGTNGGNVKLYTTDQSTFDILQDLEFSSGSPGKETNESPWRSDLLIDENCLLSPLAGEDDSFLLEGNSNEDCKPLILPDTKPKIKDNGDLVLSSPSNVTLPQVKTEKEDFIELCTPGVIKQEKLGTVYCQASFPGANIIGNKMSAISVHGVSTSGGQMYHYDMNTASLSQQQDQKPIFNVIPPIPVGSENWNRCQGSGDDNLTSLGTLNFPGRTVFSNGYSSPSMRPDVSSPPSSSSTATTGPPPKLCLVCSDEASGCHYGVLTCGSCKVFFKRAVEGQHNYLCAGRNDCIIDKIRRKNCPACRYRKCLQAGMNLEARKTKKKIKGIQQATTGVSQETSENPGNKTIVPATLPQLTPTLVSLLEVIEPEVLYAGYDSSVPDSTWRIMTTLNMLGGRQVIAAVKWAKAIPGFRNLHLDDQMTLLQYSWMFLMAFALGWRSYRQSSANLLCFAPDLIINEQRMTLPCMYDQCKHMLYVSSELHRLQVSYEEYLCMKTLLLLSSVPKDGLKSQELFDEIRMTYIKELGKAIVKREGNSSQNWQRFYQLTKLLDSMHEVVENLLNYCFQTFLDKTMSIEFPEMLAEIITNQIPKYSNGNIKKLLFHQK
Description: (A,B). […] The stability of the complex was simulated using molecular dynamics in the GROMACS program. (C) GR binding affinity was estimated using a radioligand binding assay. […] Cell lysate radioactivity was measured using a RackBeta 1215 LC (LKB Wallac, Turku, Finland) spectrometer for 4 min. […] The experiments were performed in triplicate (n = 3).
After 90 min of incubation, the cells were washed twice by centrifugation in cold serum-free medium (1500 rpm, 5 min). The cells were then lysed with RIPA buffer (50 mM Tris (pH 8.0), 150 mM NaCl, 1 mM ethylenediaminetetraacetic acid, 0.1% sodium dodecyl sulfate, 0.5% sodium deoxycholate, 1% triton-X100, 10% glycerin, and protease inhibitor) for 20 min. Lysates were transferred to scintillation liquid, and radioactivity was measured using a RackBeta 1215 LC spectrometer for 4 min. […] IC50 was determined using GraphPad Prism software, Ver.7.0. […] “Top” meant the highest value in dpm and was equal to 100%, while the “bottom” was considered as the lowest value (0%). […] The IC50 values for each ligand were determined by plotting these curves. The experiments were performed in triplicate.

[2] = tested on: IL1-α and IL6 mRNA expression in K562 and Granta cells; assay: Q-PCR of GR transrepression marker genes; assay type: cell-based
Description: Figure 4 Effects of synephrine derivatives on GR transrepression in Granta lymphoma and K562 leukemia cells. (A) K562 and Granta cells stably infected with the lentiviruses bearing the NF-kB luciferase reporter. Cells were incubated for 5 h with the solvent (control), TPA (5 ng/mL), 4S-C2 (10 µM), 8S-E3 (10 µM), 10S-E2 (1 µM), or 13S-G2 (1 µM). Luciferase activity was determined as described in the Materials and Methods section. (B) IL1-α and IL6 mRNA expression in K562 and Granta cells. Q-PCR results were normalized to the expression of the housekeeping gene RPL27 and are presented as the fold change compared to the control. The mean ± SD was calculated for three individual samples/condition (n = 3). Statistically significant differences compared to the control: * p < 0.05, ** p < 0.01.
(§2) Total RNA isolation from cell cultures and murine bones, reverse transcription, and Q-PCR were performed as described in [36]. Primers were designed using NCBI Primer-BLAST https://www.ncbi.nlm.nih.gov/tools/primer-blast/, accessed on 25 August 2025 (Supplementary Table S1). Results were normalized to the expression of the housekeeping RPL27 и Rpl27 genes. The experiments were performed in triplicate.

[3] = tested on: FKBP51, GILZ, DDIT4 mRNA expression in K562 and Granta cells; assay: Q-PCR of GR transactivation marker genes; assay type: cell-based; settings: 4 h (FKBP51, GILZ) or 24 h (DDIT4); Dex 10 µM, 10S-E2 0.1 µM; vs control
Description: Q-PCR results were confirmed by Western blot analysis of the level of GR phosphorylated by Ser211, known as a crucial protein modification for GR TA realization because of its binding to short cysteine-rich fragments of the coactivator CREB-binding protein [41].
as §1, §2

In the case of CCCCCCNCC(O)c1ccc(OCc2ccccc2)cc1 (stereo not drawn) [10S-E2, 1-[4-(benzyloxy)phenyl]-2-(hexylamino)ethanol], the “GR phosphorylation level at Ser211” value [1] is reported as “did not affect the phosphorylation”, the IC50 (GR) is reported as 560 nM and the “expression of GR TR marker genes IL1-α and IL6” value [2] is reported as “downregulation”. For the same compound, the “expression of TA marker genes FKBP51, GILZ, DDIT4” value [3] was “did not increase the expression”.
